Data set [1] in a line: Toxicity against Artemia salina assessed as mortality rate at 10 ug/mL after 24 hrs by small modified microtiter-plate method. The format is organism-based. The note with it: in vivo, read-out: Activity.
The next data set has as its system Rhizomucor miehei. Briefly: Antimicrobial activity against Mucor miehei at 10 ug/disk by agar diffusion method. The format is functional. The note with it: read-out: IZ. For orientation: Agar diffusion results depend on both activity and mobility in agar.

Take `C/C1=C\[C@@H](C)C/C=C/[C@H]2[C@@H]3O[C@]3(C)[C@@H](C)[C@H]3[C@H](Cc4c[nH]c5ccccc45)NC(=O)[C@]32C(=O)/C=C/C(=O)[C@@H]1O` [CHAETOGLOBOSIN A]: the mortality at 24 h, 10 ug/mL in data set [1] came out at 83.4%. Moreover, the zone of inhibition at 10 µg/disc with Rhizomucor miehei was 25 mm. Turning to `C/C1=C\[C@@H](C)C/C=C/[C@H]2[C@@H]3O[C@]3(C)[C@@H](C)[C@H]3[C@H](Cc4c[nH]c5ccccc45)NC(=O)[C@]32C(=O)CCC(=O)C1=O` [CHAETOGLOBOSIN C], in data set [1], the mortality at 24 h, 10 ug/mL turned out to be 75.3%. The zone of inhibition at 10 µg/disc with Rhizomucor miehei stood at 15 mm. Regarding `C[C@H](/C=C/C1=CC2=C(Cl)C(=O)[C@@]3(C)O[C@]4(O)[C@H](C)[C@@H](C)OC(=O)[C@@H]4[C@H]3C2=CO1)[C@@H](C)O` [CHAETOMUGILIN A], in data set [1], the mortality at 24 h, 10 ug/mL turned out to be 78.3%.

Regarding `CC[C@H](C)/C=C/C1=CC2=C(Cl)C(=O)[C@@]3(C)O[C@]4(O)[C@H](C)[C@@H](C)OC(=O)[C@@H]4[C@H]3C2=CO1` [CHAETOMUGILIN D], in data set [1], the mortality at 24 h, 10 ug/mL stood at 75.2%.

The values above are taken from ChEMBL document CHEMBL1153329, “Bioactive metabolites produced by Chaetomium globosum, an endophytic fungus isolated from Ginkgo biloba” (Bioorg Med Chem Lett, 2009).
